The text below walks through data of US8796285B2, “Pyrazolo [1,5-a]-pyrimidones derivatives and pharmaceutical compositions and uses thereof” (Hebei Medical University, priority 2009, dated 2014).

Where two headings read alike, the source gives them in different places.

Experiment [1] deals with KCNQ4 potassium ion channel (Homo sapiens, UniProt P56696). Kind of experiment: High throughput atomic absorption Rb+ efflux testing, CHO cell of KCNQ4 channel. Type of experiment: cell-based. As to conditions: for EC50: CHO cell of KCNQ4 channel. From the text: Atomic absorption Rb^+ efflux testing is a fast and safe selection method for high throughput potassium channel moderator, and is characterized in that the activity of the ion channel and the control effect of the opener are directly reflected. Rb and K have similar atomic size, and potassium ion channel is permeable to Rb^+. By testing concentration of the Rb^+ efflux, a status of the potassium channel, which is an open status or a close status, can be determined. Rb has specific absorption at 780 nm, and Rb^+ concentration can be determined by atomic absorption spectroscopy. Accordingly, analysis method of atomic absorption spectroscopy can be used to select the opener/inhibitor of potassium channel through high throughput of Rb^+ efflux.
Stable cell transfer of CHO cell of KCNQ4 channel at log phase and inoculate in 96-well culture plate at a density of 2×10^4 unit/well. Each concentration has a triplicate-hole setting, and a control setting with solvent of corresponding concentration. Allow growth against the well-wall overnight, then discard the culture medium, add 200 μl loading buffer which contains RbCl, and culture in 5% CO2 at 37° C. for 3 hours. Then remove the loading buffer and wash with wash buffer for 3 times. Screen for the KCNQ opener, dilute testing compound with depolarization buffer, add 200 μl of the above solvent into the cell and allow reaction for 10 minutes. Incubate for 10 minutes, then carefully draw 200 μl supernatant to another 96-well culture plate, use ICR8000 atomic absorption spectrometry to determine the Rb^+ atomic absorption at 780 nm. Based on the equation Fsupern=(Rb_supern/cpd/Rb_supern/d)×100, calculate the corresponding rate of efflux.

Experiment [2] concerns male mice. The experiment can be described thus: The maximum electric shock experiment. As to conditions: Mus musculus, corneal electrode 26 mA 0.4 second, forced feeding 10, 25, 50 mg/kg, read-out: ED50 anticonvulsant effect. The format is in vivo. An excerpt: “The maximum electric shock” experiment: The experiment uses electrical method to measure non-specific CNS-induced seizures.
Pharmaceutical composition used: the compound number 21 for the testing group, phenyloin for positive control group.
Experimental method: Apply corneal electrode in male mice of each group, apply 26 mA square wave current for 0.4 second, and forced feeding the pharmaceutical composition after inducing convulsion which is characterized by hindlimb tonic extension (Wlaz et al., Epilepsy Research 1998, 30, 219-229). Dosages for the testing group are: 10 mg/kg (body weight) per administration, 25 mg/kg (body weight) per administration, and 50 mg/kg (body weight) per administration respectively. For control group, dosage is 25 mg/kg (body weight) per administration.

In experiment [3] the target is T1, KCNQ2/3 (Homo sapiens, UniProt O43525+O43526).
T1 construct: expressed in transfected cells
The experiment can be described thus: High throughput atomic absorption Rb+ efflux testing, KCNQ2/3. Type of experiment: cell-based. As to conditions: Rb+ efflux by atomic absorption.

Experiment [4] addresses KCNQ2/Q3 channel (Homo sapiens, UniProt O43525+O43526). Kind of experiment: Patch-clamp electrophysiology testing, CHO cell of KCNQ2/Q3 channel. The format is cell-based. As to conditions: clamping voltage -80 mV, depolarized to -40 mV, FIG. 5a. From the text:
(2) Testing method: Culture of ovary cell of Chinese hamster (CHO, Chinese Hamster Overy): steadily transfer the CHO cell culture of KCNQ2/Q3 channel into a composition containing 10% fetal bovine serum, 100 U/ml penicillin and DMEM culture solution of streptomycin, and allow digestion passage of trypsin. Spread the cell on a 12 mm round-shaped coverslip and culture on a 24-well cell culture plate.
Record membrane current using patch-clamp technique: The patch-clamp amplifier is HEKA-EPC10. The electrode solution uses amphotericin B (final concentration of 0.1˜0.2 mg/ml) for perforated patch clamp recording. After polishing the microelectrodes, inject the electrode solution and control the to 2˜4MΩ. The electrode solution used for recording CHO cell are (mM): KCl 160, HEPES 5, MgCl2 3, CaCl2 1, EGTA 2, with pH adjusted to 7.4 with KOH; Extracellular electrode composition are (mM): NaCl 160, KCl 2.5, HEPES 10, glucose 8, MgCl2 1, CaCl2 5. After the cell membrane and microelectrodes form a high resistance seal, clamp at −80 mV, wait 5-10 min and record the readings according to different activation procedures.

Experiment [5] has as its system rat. The experiment can be described thus: Amygdala kindling experiment. The format is in vivo. As to conditions: vs pre-administration, p<0.01 vs control group. An excerpt: This experiment is used to measure the disease progress, when further stimulation is applied, the seizure level of the animal in this model will be increased as in the situation of normal animal.
Pharmaceutical composition used: suspended solution of sodium carboxymethyl cellulose containing the compound number 21 for the testing group, suspended solution of sodium carboxymethyl cellulose for the positive control group, with concentration equal to the suspended solution of the testing group.
Testing method: perform surgery to implant tri-polar electrode into dorsolateral amygdale of rat. After surgery, allow the animal to recover, then administer testing compound or pharmaceutical solvent agent of different dosages to rat of different groups. The animal is treated with electrical stimulation at a value which is +25 μA of the initial discharge threshold on a daily basis for 3-5 weeks, and record each seizure incidence in which the level of seizure, the duration of the seizure, and electrical duration after discharge are recorded (Racine. Electroencephalography and Clinical Neurophysiology 1972, 32, 281-294). Dosage level is the same as that of exemplary embodiment 11.

The test system of experiment [6] is male mice. The experiment can be described thus: Pilocarpine-induced seizures experiment. Type of experiment: in vivo. As to conditions: Mus musculus, ip, pilocarpine 250 mg/kg i.p., compound by intraperitoneal injection 1, 5, 10 mg/kg, read-out: ED50 anti-epilepsy effect. The procedure: Pilocarpine-induced seizure is, in general, difficult to treat by using the existing anti-epileptic drug, so it belongs to “drug-resistance epilepsy” model.
Pharmaceutical composition used: the compound number 24 for the testing group, phenyloin for positive control group.
Experimental method: Inject 250 mg/kg pilocarpine into the male mice of each group by intraperitoneal injection, induce pilocarpine-induced seizure, observe walking abnormality caused by seizures activities in 30 minutes (Starr et al, Pharmacology Biochemistry and Behavior 1993, 45, 321-325). Apply intraperitoneal injection. Dosages for the testing group are: 1 mg/kg (body weight) per administration, 5 mg/kg (body weight) per administration, and 10 mg/kg (body weight) per administration respectively. For control group, dosage is 50 mg/kg (body weight) per administration.

Take `O=c1cc(CCl)[nH]c2c(-c3ccccc3)c(C(F)(F)F)nn12` [Compound 21, 5-chloromethyl-3-phenyl-2-trifluoromethylpyrazolo[1,5-a]pyrimidin-7(4H)-one]: the EC50 in experiment [1] (Rb+ efflux by atomic absorption, read-out: KCNQ4) was found to be 23900 ± 430 nM; in experiment [3] it was 3610 ± 6020 nM. The ED50 in experiment [2] amounted to 12.2 ± 0.08 mg/kg. In addition, the “activation of KCNQ2/3 channel current” value in experiment [4] is reported as “can activate the KCNQ2/3 channel current significantly”. In experiment [5], the seizure level entry is given as “increased in the seizure level”. Further, the “time period after discharge process of amygdala” value in experiment [5] is reported as “shorten time period after discharge process of amygdale”.

With `O=c1cc(-c2cc(F)c(Cl)nc2Cl)[nH]c2c(-c3ccccc3)c(C(F)(F)F)nn12` [Compound 24], in experiment [1] (Rb+ efflux at 0.03, 0.1, 0.6, 1, 3 and 10 μM, FIG. 4), the “activating effect on the CHO cell of the KCNQ4 potassium ion channel” value is “dose-dependent activating effect”. The EC50 was 210 ± 80 nM in experiment [1] (Rb+ efflux, 0.03-10 μM, FIG. 4, read-out: EC50) and 78 ± 20 nM in experiment [3]. Further, in experiment [6], the ED50 was found to be 5.1 ± 0.05 mg/kg.
